Assay: compatibility with other active ingredients in pharmaceutical formulations
Assay type: physicochemical
Details: especially with formoterol; relative to glycopyrronium bromide

compatibility with other active ingredients: better compatibility
Structure (SMILES): C[N+]1(C)CCC(OC(=O)C(O)(c2ccccc2)C2CCCC2)C1.[Cl-] (stereo not shown) [glycopyrronium chloride]

— patent US20110306650A1 (Chiesi Farmaceutici S.p.A., priority 2010, published 2011)
